Data reported in PubChem BioAssay (NCI).
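Five concentrations, 48 hours, 96-well plates. GI50: concentration for 50% inhibition of growth. TGI denotes the concentration required for complete inhibition of growth.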

Tested on: MDA-MB-468 breast
Test: NCI anticancer screen, dose series, 48 h

SMILES | GI50 | TGI
CCN(CC)CCOc1ccc(Nc2ncc3cc(-c4ccc(O)cc4)c(=O)n(C)c3n2)cc1 | 3.9 µM | 24.2 µM
COc1cc(Cl)cc(-c2nn(C(=O)NCCN3CCN(C)CC3)cc2-c2ccncc2)c1 | 10.5 µM | 49.9 µM
C/C=C(\C)C(=O)N[C@H]1[C@@H](OC(C)=O)C[C@]2(C)C3CC[C@@]4(C)C(CC[C@@H]4C(C)N(C)C)C3CCC2[C@H]1O (stereo not given in full) | 2.02 µM | 9.67 µM
c1ccc(C(=NNc2nc3ccccc3o2)c2ccccn2)nc1 | 0.0285 µM | 0.196 µM
c1ccc2[nH]c(SSc3nc4ncncc4[nH]3)nc2c1 | 0.232 µM | > 76.5 µM
O=[N+]([O-])c1ccc(-c2nc(N(CCO)CCO)c3ccccc3n2)o1 | 0.0553 µM | 0.195 µM
CCN1C(=O)N(CC)C2C1NN=c1s/c(=C3\C(=O)N(CC(C)C)c4ccccc43)c(=O)n12 (stereo not given) | 0.351 µM | 15.9 µM
CCCCCCCCCCC(C[N+](C)(C)C/C=C/c1ccccc1)C(O)c1ccccc1 (stereo not given) | 1.37 µM | 3.06 µM
CC([C@H]1CCC2C3CCC4C[C@@H](NC=O)CC[C@]4(C)C3CC[C@@]21C)N(C)C (stereo not given in full) | 1.42 µM | 3.73 µM
CCCCCNC(=O)[C@@H]1CCCN2C(=O)CC[C@H](NC(=O)[C@H](Cc3ccc(OP(=O)(O)O)cc3)NC(C)=O)C(=O)N12 | > 25 µM | > 25 µM
CCC1=C[C@@H]2CN(C1)Cc1c([nH]c3ccccc13)[C@@](C(=O)OC)(c1cc3c(cc1OC)N(C=O)[C@H]1[C@@](O)(C(=O)OC)[C@H](OC(C)=O)[C@]4(CC)[C@@H]5C[C@@H]5CN5CC[C@]31[C@@H]54)C2 | < 0.000625 µM | > 6.25 µM
O=C(Nc1ccc(-n2cc(-c3ccncc3)c(-c3ccc(O)c(Cl)c3)n2)cc1)c1cc(Cl)cc(Cl)c1 | 3.17 µM | > 32.5 µM
Cc1cc(C)c(O)c(CNCCCCCCNCc2cc(C)cc(C)c2O)c1 | 1.6 µM | 3.12 µM
CCCc1ccc(S(=O)(=O)N[C@H]2CC[C@H]3[C@@H]4CCc5cc(O)ccc5[C@H]4CC[C@]23C)cc1 | 2.32 µM | 9.51 µM
CC1(C)NCCC[C@]2(C)[C@H]3C=CC4=C5C[C@](C)(CO)CC[C@]5(C)CC[C@@]4(C)[C@]3(C)CC[C@@H]12 | 10.4 µM | 24 µM
COc1ccc2c(c1)nc(N)c1c3cc(OC)c(OC)cc3cn21 | 0.0339 µM | 12.5 µM
COc1c(C)c2c(c(O)c1C/C=C(\C)CCC(=O)OCCN1CCOCC1)C(=O)OC2 | 0.421 µM | > 100 µM
O=C(NC1CC1)c1ccc(-c2nc3ccc4[nH]ncc4c3c3c2CCCC3)cc1 | 1.5 µM | 7.14 µM
CC(=O)Nc1nc(SCc2ccccc2)c2ncn(C(C)=O)c2n1 | 24.8 µM | > 100 µM
O=C(N/N=C\c1ccc(F)cc1)c1ccc2nc(-c3ccc(Br)cc3)[nH]c2c1 | 1.98 µM | 3.99 µM
